# Data from patent US20260144788A1, “COMPOUND FOR SHP2 PROTEIN DEGRADATION AND MEDICAL USES THEREOF” (UBIX THERAPEUTICS, INC., priority 2022, published 2026).
# Target: T1, SHP2 protein (Homo sapiens, UniProt Q06124)
# T1 sequence (Q06124 1-593): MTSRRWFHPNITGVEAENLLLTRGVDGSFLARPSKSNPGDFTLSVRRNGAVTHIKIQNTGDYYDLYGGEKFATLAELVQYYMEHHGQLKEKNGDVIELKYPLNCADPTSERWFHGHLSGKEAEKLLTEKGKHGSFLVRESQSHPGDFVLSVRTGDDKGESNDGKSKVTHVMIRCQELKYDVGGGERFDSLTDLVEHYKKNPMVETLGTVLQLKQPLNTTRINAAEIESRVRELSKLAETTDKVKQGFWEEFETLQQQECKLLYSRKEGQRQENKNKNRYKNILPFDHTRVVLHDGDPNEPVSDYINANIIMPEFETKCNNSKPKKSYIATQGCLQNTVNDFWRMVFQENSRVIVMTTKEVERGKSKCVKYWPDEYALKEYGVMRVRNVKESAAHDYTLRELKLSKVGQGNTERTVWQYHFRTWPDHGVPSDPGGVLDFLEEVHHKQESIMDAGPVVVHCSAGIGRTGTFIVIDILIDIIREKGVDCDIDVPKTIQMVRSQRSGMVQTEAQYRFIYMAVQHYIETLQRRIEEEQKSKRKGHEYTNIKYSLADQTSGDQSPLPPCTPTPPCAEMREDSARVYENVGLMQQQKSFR
# Test: Measurement of SHP2 protein degradation in MV-4-11 cells (western blotting)
# Type: cell-based
# Parameters: endogenous in cells
# Details: harvested after 24 hours
# Protocol: MV-4-11 cells were treated with the synthesized Example compounds, and the amount of SHP2 protein present in the cells was measured using western blotting detection. The protocol for the experiment conducted using MV-4-11 cells is as follows.
# [Culture] MV-4-11 cells were resuspended in IMDM MEDIUM (Hyclone, SH30228.01), 5% FBS (Hyclone, SV30207.02), 1% Penicillin-streptomycin (Welgene, LS 202-02) media and seeded at 1×10^6/mL in 12-well plates (1 mL each).
# [Compound treatment]12-well plates were treated as follows. 10 mM stock dissolved in DMSO was serially diluted 1/100 or 1/10 with media, and the compounds were treated to the cells at a final concentration of 0.01, 0.1, 1 μM or 0.001, 0.01, 0.1 μM, and harvested after 24 hours. For the negative control group, DMSO diluted 1/100 or 1/1000 in media was added (3 μL DMSO+297 μL media or 1 μL DMSO+999 μL media).
# [Harvest] Each well was pipetted with a 1 mL pipette, collected in a 1.5 mL microtube, and centrifuged (500 g, 5 min, 4° C.). The supernatant was removed, washed with PBS, and centrifuged again (500 g, 5 min, 4° C.). The supernatant was removed and a pellet was prepared.
# [Cell lysis and sample preparation] Lysis buffer was prepared as follows. RIPA buffer (Biosesang, RC2038-050-00)+0.5 mM PMSF (SIGMA, P7626)+1× Protease/Phosphatase Inhibitor (Cell signaling, 5872S) were added at 50 μL per tube and incubated on ice for 30 minutes (vortexed at 0 and 30 minutes). After sonication (10 sec pulse, 30 sec rest, 5 cycles, 70% amplification) and centrifugation (15,000 g, 15 min, 4° C.), only the supernatant was transferred to a microtube. RIPA buffer 7.5 μL and sample 2.5 μL were added to a 96-well plate to dilute to 1/4, and then BCA Protein Assay Kit (iNtRON, 21071) A and B were mixed in a 50:1 ratio and 200 μL each was added. After that, the plate was incubated at 37° C. for 30 minutes and left at room temperature for 10 minutes. After shaking for 10 seconds with a SYNERGY H1 microplate reader from BioTek, the absorbance was measured at 562 nm. The protein was quantified using the measured value to prepare a sample, which was then incubated at 70° C. for 10 minutes. The sample buffer used at this time is a mixture of NuPAGE or Bolt 4× sample buffer (Invitrogen) and each 10× sample reducing agent according to the gel to be used, and RIPA buffer was used for protein dilution.
# [Western blotting detection] Equal amounts of samples were loaded onto NuPAGE or Bolt Bis-tris 4-12% gradient gels and run (200 V, 35 min). This was transferred to […] NC membranes using Trans-blot Turbo (BIO-RAD) (1.3 A constant, 25 V limit, 15 min), and was blocked at room temperature for 1 hour with Skim milk or Intercept Blocking Buffer (LI-COR, 927-60001):0.1% TBST=1:1. Anti-SHPTP2 Mouse (1:500 in 2% BSA/0.2% TBST, size: 70 kDa, Santacruz sc-7384) was incubated overnight at 4° C., and Anti-GAPDH Rabbit (1:2,000 in 2% BSA/0.2% TBST, size: 37 kDa, CST #2118) was incubated at room temperature for 1.5 hours or 3 hours. After washing three times for 5 minutes each with 0.2% TBST washing buffer, secondary antibodies Anti-Mouse IgG (1:5,000 in 2% BSA/0.2% TBST, CST) and IRDye® 680RD Goat anti-Rabbit IgG Secondary Antibody (1:10,000 in 2% BSA/0.2% TBST, LI-COR 926-68071) were added, and incubated on a rocker at room temperature for 45 minutes. The resultants were washed five times for 5 minutes each with 0.2% TBST washing buffer, and detected using LI-COR's Odyssey. GAPDH was detected with a 700 nm channel, and SHPTP2 was detected using SuperSignal West Pico PLUS Chemiluminescent Substrate.
SMILES,SHP2% degradation (0.01 μM),SHP2% degradation (0.1 μM)
"Cc1ncsc1-c1ccc(CNC(=O)[C@@H]2C[C@@H](O)CN2C(=O)[C@@H](NC(=O)C2(F)CC2)C(C)(C)C)c(OCCCCCCN2CCC(CNc3cccc(Sc4cnc(N5CCC(C)(CN)CC5)cn4)c3Cl)CC2)c1 [Example 1, (2S,4R)—N-(2-((6-(4-(((3-((5-(4-(aminomethyl)-4-methylpiperidin-1-yl)pyrazin-2-yl)thio)-2-chlorophenyl)amino)methyl)piperidin-1-yl)hexyl)oxy)-4-(4-methylthiazol-5-yl)benzyl)-1-((S)-2-(1-fluorocyclopropane-1-carboxamido)-3,3-dimethylbutanoyl)-4-hydroxypyrrolidine-2-carboxamide]",−33.4%,6.5%
"Cc1ncsc1-c1ccc(CNC(=O)[C@@H]2C[C@@H](O)CN2C(=O)[C@@H](NC(=O)C2(F)CC2)C(C)(C)C)c(OCCN2CCN(CCNc3cccc(Sc4cnc(N5CCC(C)(CN)CC5)cn4)c3Cl)CC2)c1 [Example 2, (2S,4R)—N-(2-(2-(4-(2-((3-((5-(4-(aminomethyl)-4-methylpiperidin-1-yl)pyrazin-2-yl)thio)-2-chlorophenyl)amino)ethyl)piperazin-1-yl)ethoxy)-4-(4-methylthiazol-5-yl)benzyl)-1-((S)-2-(1-fluorocyclopropane-1-carboxamido)-3,3-dimethylbutanoyl)-4-hydroxypyrrolidine-2-carboxamide]",11.8%,80.3%
"Cc1ncsc1-c1ccc(CNC(=O)[C@@H]2C[C@@H](O)CN2C(=O)[C@@H](NC(=O)C2(F)CC2)C(C)(C)C)c(OCCN2CCN(CCNc3cccc(Sc4cnc(N5CCC(C)(CN)CC5)cn4)c3Cl)C(=O)C2)c1 [Example 3, (2S,4R)—N-(2-(2-(4-(2-((3-((5-(4-(aminomethyl)-4-methylpiperidin-1-yl)pyrazin-2-yl)thio)-2-chlorophenyl)amino)ethyl)-3-oxopiperazin-1-yl)ethoxy)-4-(4-methylthiazol-5-yl)benzyl)-1-((S)-2-(1-fluorocyclopropane-1-carboxamido)-3,3-dimethylbutanoyl)-4-hydroxypyrrolidine-2-carboxamide]",19%,90.3%
"Cc1ncsc1-c1ccc(CNC(=O)[C@@H]2C[C@@H](O)CN2C(=O)[C@@H](NC(=O)C2(F)CC2)C(C)(C)C)c(OCCN2CCN(C(=O)CNc3cccc(Sc4cnc(N5CCC(C)(CN)CC5)cn4)c3Cl)CC2)c1 [Example 4, (2S,4R)—N-(2-(2-(4-((3-((5-(4-(aminomethyl)-4-methylpiperidin-1-yl)pyrazin-2-yl)thio)-2-chlorophenyl)glycyl)piperazin-1-yl)ethoxy)-4-(4-methylthiazol-5-yl)benzyl)-1-((S)-2-(1-fluorocyclopropane-1-carboxamido)-3,3-dimethylbutanoyl)-4-hydroxypyrrolidine-2-carboxamide]",42.9%,95.6%

# Other lines, results leading:
SHP2% degradation (0.01 μM),SHP2% degradation (0.1 μM),SMILES
22.3%,62.0%,"Cc1ncsc1-c1ccc(CNC(=O)[C@@H]2C[C@@H](O)CN2C(=O)[C@@H](NC(=O)C2(F)CC2)C(C)(C)C)c(O[C@H]2CC[C@H](CN3CC(Nc4cccc(Sc5cnc(N6CCC(C)(CN)CC6)cn5)c4Cl)C3)CC2)c1 [Example 5, (2S,4R)—N-(2-(((1R,4S)-4-((3-((3-((5-(4-(aminomethyl)-4-methylpiperidin-1-yl)pyrazin-2-yl)thio)-2-chlorophenyl)amino)azetidin-1-yl)methyl)cyclohexyl)oxy)-4-(4-methylthiazol-5-yl)benzyl)-1-((S)-2-(1-fluorocyclopropane-1-carboxamido)-3,3-dimethylbutanoyl)-4-hydroxypyrrolidine-2-carboxamide]"
14.8%,56.9%,"Cc1ncsc1-c1ccc(CNC(=O)[C@@H]2C[C@@H](O)CN2C(=O)[C@@H](NC(=O)C2(F)CC2)C(C)(C)C)c(O[C@H]2CC[C@H](CN3CCC(Nc4cccc(Sc5cnc(N6CCC(C)(CN)CC6)cn5)c4Cl)CC3)CC2)c1 [Example 6, (2S,4R)—N-(2-(((1R,4S)-4-((4-((3-((5-(4-(aminomethyl)-4-methylpiperidin-1-yl)pyrazin-2-yl)thio)-2-chlorophenyl)amino)piperidin-1-yl)methyl)cyclohexyl)oxy)-4-(4-methylthiazol-5-yl)benzyl)-1-((S)-2-(1-fluorocyclopropane-1-carboxamido)-3,3-dimethylbutanoyl)-4-hydroxypyrrolidine-2-carboxamide]"
10.1%,55.4%,"Cc1ncsc1-c1ccc(CNC(=O)[C@@H]2C[C@@H](O)CN2C(=O)[C@@H](NC(=O)C2(F)CC2)C(C)(C)C)c(OC2CCN(C[C@H]3CC[C@H](Nc4nccc(Sc5cnc(N6CCC(C)(CN)CC6)cn5)c4Cl)CC3)CC2)c1 [Example 7, (2S,4R)—N-(2-((1-(((1R,4S)-4-((4-((5-(4-(aminomethyl)-4-methylpiperidin-1-yl)pyrazin-2-yl)thio)-3-chloropyridin-2-yl)amino)cyclohexyl)methyl)piperidin-4-yl)oxy)-4-(4-methylthiazol-5-yl)benzyl)-1-((S)-2-(1-fluorocyclopropane-1-carboxamido)-3,3-dimethylbutanoyl)-4-hydroxypyrrolidine-2-carboxamide]"
11.7%,81.9%,"Cc1ncsc1-c1ccc(CNC(=O)[C@@H]2C[C@@H](O)CN2C(=O)[C@@H](NC(=O)C2(F)CC2)C(C)(C)C)c(OCCN2CCN(CC3CCN(c4nccc(Sc5cnc(N6CCC(C)(CN)CC6)cn5)c4Cl)CC3)CC2)c1 [Example 8, (2S,4R)—N-(2-(2-(4-((1-(4-((5-(4-(aminomethyl)-4-methylpiperidin-1-yl)pyrazin-2-yl)thio)-3-chloropyridin-2-yl)piperidin-4-yl)methyl)piperazin-1-yl)ethoxy)-4-(4-methylthiazol-5-yl)benzyl)-1-((S)-2-(1-fluorocyclopropane-1-carboxamido)-3,3-dimethylbutanoyl)-4-hydroxypyrrolidine-2-carboxamide]"
4.0%,81.1%,"Cc1ncsc1-c1ccc(CNC(=O)[C@@H]2C[C@@H](O)CN2C(=O)[C@@H](NC(=O)C2(F)CC2)C(C)(C)C)c(OC2CCN(CC3CCN(c4nccc(Sc5cnc(N6CCC(C)(CN)CC6)cn5)c4Cl)CC3)CC2)c1 [Example 9, (2S,4R)—N-(2-((1-((1-(4-((5-(4-(aminomethyl)-4-methylpiperidin-1-yl)pyrazin-2-yl)thio)-3-chloropyridin-2-yl)piperidin-4-yl)methyl)piperidin-4-yl)oxy)-4-(4-methylthiazol-5-yl)benzyl)-1-((S)-2-(1-fluorocyclopropane-1-carboxamido)-3,3-dimethylbutanoyl)-4-hydroxypyrrolidine-2-carboxamide]"
